Data reported in patent US7332279B2 (Glycozym APS, priority 1999, dated 2008).
Read-outs that look alike come from different tables or passages of the source.

Tests used:
Type in all cases: biochemical
β3Gal-T1 = target: T1, β3Gal-T1 (Homo sapiens, UniProt Q9Y5Z6); experiment: Galactosyltransferase assay, recombinant β3Gal-T1, saccharide acceptors
T1 construct: The kinetic properties were determined with partially purified, secreted forms of the enzymes; made in house; host or cells: baculovirus; Sf9 / High Five insect cells, medium
T1 sequence (Q9Y5Z6 27-326 limits assumed): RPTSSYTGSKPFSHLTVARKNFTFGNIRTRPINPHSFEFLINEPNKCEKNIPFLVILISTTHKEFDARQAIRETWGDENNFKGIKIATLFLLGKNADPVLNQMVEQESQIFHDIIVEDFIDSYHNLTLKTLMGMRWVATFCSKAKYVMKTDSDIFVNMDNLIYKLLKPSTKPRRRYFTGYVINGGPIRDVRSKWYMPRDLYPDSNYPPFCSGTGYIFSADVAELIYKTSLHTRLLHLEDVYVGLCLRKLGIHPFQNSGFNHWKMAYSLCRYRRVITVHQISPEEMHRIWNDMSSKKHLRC

β3Gal-T2 = target: T2, β3Gal-T2 (Homo sapiens, UniProt O43825); experiment: Galactosyltransferase assay, recombinant β3Gal-T2, saccharide acceptors
T2 construct: The kinetic properties were determined with partially purified, secreted forms of the enzymes; made in house; host or cells: baculovirus; Sf9 / High Five insect cells, medium
T2 sequence (O43825 46-422 limits assumed): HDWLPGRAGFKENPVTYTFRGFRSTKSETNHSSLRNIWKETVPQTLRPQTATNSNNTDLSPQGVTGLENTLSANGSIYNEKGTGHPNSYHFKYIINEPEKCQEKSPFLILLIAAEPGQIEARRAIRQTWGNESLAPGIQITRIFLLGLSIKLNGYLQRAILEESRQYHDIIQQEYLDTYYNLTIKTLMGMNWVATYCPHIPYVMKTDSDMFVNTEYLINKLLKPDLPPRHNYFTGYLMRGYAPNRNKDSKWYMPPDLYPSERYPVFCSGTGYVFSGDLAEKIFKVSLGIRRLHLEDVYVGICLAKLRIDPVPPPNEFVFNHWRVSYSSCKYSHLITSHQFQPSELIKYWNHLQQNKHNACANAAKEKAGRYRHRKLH

β3Gal-T5 = target: T3, β3Gal-T5 (Homo sapiens, UniProt Q9Y2C3, M85T); experiment: Galactosyltransferase assay, partially purified secreted recombinant β3Gal-T5, saccharide acceptors; details: for β3Gal-T5 activity, substrate concentration 1 mM: acceptor 1 mM; for β3Gal-T5 activity, substrate concentration 5 mM: acceptor 5 mM
T3 construct: designed to exclude the hydrophobic transmembrane segment and to encode amino acid residues 25-310; secretion signal of vector pAcGP67B (gp67); made in house; host or cells: baculovirus; Sf9 cells (media) and High Five cells (serum-free medium, partially purified)
T3 sequence (Q9Y2C3 25-310 M85T): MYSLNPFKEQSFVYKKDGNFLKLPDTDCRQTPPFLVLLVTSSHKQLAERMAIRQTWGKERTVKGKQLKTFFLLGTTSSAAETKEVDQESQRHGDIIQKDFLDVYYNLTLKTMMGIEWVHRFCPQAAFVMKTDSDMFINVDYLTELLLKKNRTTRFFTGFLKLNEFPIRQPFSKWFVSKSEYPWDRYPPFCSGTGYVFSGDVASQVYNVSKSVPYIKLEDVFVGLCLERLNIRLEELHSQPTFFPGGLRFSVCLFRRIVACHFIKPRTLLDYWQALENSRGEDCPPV
Text: PCR product was cloned into the BamHI site of pAcGP67B (Pharmingen). […] This PCR product was cloned into the BamHI site of pVL1193 (Pharmingen). Both soluble and full length constructs were fully sequenced to confirm fidelity. Plasmids […]5-full were co-transfected with Baculo-GoldTM DNA (Pharmingen) as described previously (Bennett, […]. and Clausen, H. cDNA cloning and expression of a novel human UDP-N-acetyl-alpha-D-galactosamine. Polypeptide N-acetyl-galactosaminyl-transferase, GalNAc-T3. J. Biol. Chem. 271:17006-17012, 1996). Recombinant Baculo-virus were obtained after two successive amplifications in Sf9 cells grown in serum-containing medium, and titers of virus were estimated by titration in 24-well plates with monitoring of enzyme activities. […] J. Biol. […] J. Biol. […] Polypeptide N-acetyl-galactosaminyl-transferase, GalNAc-T3. J. Biol. Chem. 271:17006-17012, 1996). For large scale expression amplified virus was used to infect High FiveTM cells grown in serum-free media (Invitrogen) in upright roller bottles shaking at 140 rpm and 27° C. The kinetic properties were determined with partially purified, secreted forms of the enzymes. Semipurification of enzymes from serum-free medium of infected High-FiveTM cells was performed by sequential Amberlite, DEAE-Sephacel and 5-Sepharose chromatography as described previously ([…]., et al. […] J. Biol. Chem. 272:23503-23514, 1997). Comparisons of enzymes were performed relatively to the activity obtained with βGlcNAc-Bz1 (Tables II and III). Full length enzymes were assayed with 1% Triton CF54 homogenates of washed cells. […] Reaction products were quantified by Dowex-1 chromatography. […] P. and Clausen, H. […] J. Biol. Chem. 273:29295-29305, 1998). The transfer of Gal was evaluated after acid precipitation by filtration through Whatman GF/C glass fibre filters. […] Assays with glycolipid acceptors were conducted as previously described (Holmes, E. H. […] Arch Biochem Biophys 270:630-646, 1989) in reaction mixtures containing 2.5 μmol HEPES buffer, pH 7.2, μmol MnCl2, 100 μg taurodeoxycholate or Triton CF-54, 20 μg acceptor glycolipid, 15 nmol UDP-[^14C]-galactose (13,000 cpm/nmol) and enzyme in a total volume of 100 μl. Conditions for incubation and product isolation were as previously described (Id.).

SMILES	Vmax (β3Gal-T5; Table V)	Km (β3Gal-T5; Table V, read-out: Km)	β3Gal-T5 activity, substrate concentration 1 mM (β3Gal-T5)	β3Gal-T5 activity, substrate concentration 5 mM (β3Gal-T5)	β3Gal-T1 activity, acceptor 0.2 mM (β3Gal-T1)	β3Gal-T1 ratio to value with βGlcNAc-Bzl, acceptor 0.2 mM (β3Gal-T1)	β3Gal-T1 activity, acceptor 2 mM (β3Gal-T1)	β3Gal-T1 ratio to value with βGlcNAc-Bzl, acceptor 2 mM (β3Gal-T1)	β3Gal-T2 activity, acceptor 0.2 mM (β3Gal-T2)	β3Gal-T2 ratio to value with βGlcNAc-Bzl, acceptor 0.2 mM (β3Gal-T2)	β3Gal-T2 activity, acceptor 2 mM (β3Gal-T2)	β3Gal-T2 ratio to value with βGlcNAc-Bzl, acceptor 2 mM (β3Gal-T2)	β3Gal-T5 activity, acceptor 0.2 mM (β3Gal-T5)	β3Gal-T5 ratio to value with βGlcNAc-Bzl, acceptor 0.2 mM (β3Gal-T5)	β3Gal-T5 activity, acceptor 2 mM (β3Gal-T5)	β3Gal-T5 ratio to value with βGlcNAc-Bzl, acceptor 2 mM (β3Gal-T5)	further results
CC(=O)N[C@H]1[C@H](OCc2ccccc2)O[C@H](CO)[C@@H](O)[C@@H]1O [β-D-GlcNAc-Bzl]	873.4 pmol/min	20400 µM	1.5 nmol/min/mL	3.9 nmol/min/mL	–	–	–	–	–	–	–	–	–	–	–	–	β3Gal-T1 activity with β-D-GlcNAc-Bzl (Table III) (β3Gal-T1; β-D-GlcNAc-Bzl at 80 mM): 0.03 nmol/min; β3Gal-T1 activity with βGlcNAc-Bzl (β3Gal-T1; β-D-GlcNAc-Bzl at 80 mM): 0.03 nmol/min; β3Gal-T2 activity with β-D-GlcNAc-Bzl (Table III) (β3Gal-T2; β-D-GlcNAc-Bzl at 80 mM): 0.04 nmol/min; β3Gal-T2 activity with βGlcNAc-Bzl (β3Gal-T2; β-D-GlcNAc-Bzl at 80 mM): 0.04 nmol/min; β3Gal-T5 activity with β-D-GlcNAc-Bzl (Table III) (β3Gal-T5; β-D-GlcNAc-Bzl at 20 mM): 0.1 nmol/min; β3Gal-T5 activity with βGlcNAc-Bzl (β3Gal-T5; β-D-GlcNAc-Bzl at 20 mM): 0.1 nmol/min
CC(=O)NC1C(OC2C(O)C(CO)OC(Oc3ccc([N+](=O)[O-])cc3)C2NC(C)=O)OC(CO)C(O)C1O [β-D-GlcNAc-(1–3)-α-D-GalNAc-p-Nph]	931.1 pmol/min	2800 µM	10.8 nmol/min/mL	34.4 nmol/min/mL	0.0 nmol/min	(0.0)	0.0 nmol/min	(0.0)	0.0 nmol/min	(0.0)	0.0 nmol/min	(0.0)	0.3 nmol/min	(0.3)	0.2 nmol/min	(2.0)	Km (β3Gal-T5; acceptor substrate, read-out: apparent Km of β3Gal-T5): 2800 µM
CC(=O)N[C@H]1[C@H](OC[C@H]2O[C@H](Oc3ccc([N+](=O)[O-])cc3)[C@H](NC(C)=O)[C@@H](O[C@@H]3O[C@H](CO)[C@H](O)[C@H](O)[C@H]3O)[C@H]2O)O[C@H](CO)[C@@H](O)[C@@H]1O [βGlcNAc(1,6)[βGal(1,3)]αGalNAc-p-Nph]	–	–	–	–	0.0 nmol/min	(0.0)	0.0 nmol/min	(0.0)	0.0 nmol/min	(0.0)	0.0 nmol/min	(0.0)	0.0 nmol/min	(0.0)	0.01 nmol/min	(0.1)	–
